Experimental findings from PMC5862576, “Mitochondrial fission as a driver of stemness in tumor cells: mDIVI1 inhibits mitochondrial function, cell migration and cancer stem cell (CSC) signalling” (Oncotarget, 2018) are described below.

Common to all, as to assay type: cell-based, Human
Test [1] concerns MCF7 cells. Briefly: Total ROS (CM-H2DCFDA, flow cytometry). The settings on record: 24, 48 hours or 5 days. The protocol:
For both assays, 2 × 10^5 MCF7 cells were seeded in 35 mm plates. When cells were attached, either vehicle or mDIVI1 were added to the cells for 24, 48 hours or 5 days in triplicate. Reactive oxygen species (ROS) production was measured using CM-H2DCFDA (C6827, Invitrogen). Briefly, cells were incubated for 20 minutes at 37° C with 1 µM CM-H2DCFDA diluted in PBS and then placed in complete media for 20 minutes at 37° C in the dark, to render the dye fluorescent, according to the manufacturer. Mitochondrial superoxide was measured using MitoSOX Red Mitochondrial Superoxide Indicator (M36008, ThermoFisher Scientific). Briefly, cells were incubated for 10 minutes at 37° C in the dark with 5 µM MitoSOX diluted in PBS, according to the manufacturer. ROS signal and MitoSOX signal was quantified as mean fluorescent intensity of the viable cell population in a Fortessa flow cytometer (BD Bioscience). Results were analysed using FlowJo software.
A general note: Flow cytometry measures light scatter and fluorescence of single cells or particles in a stream.

For test [2], the system named is Notch signalling. Briefly: Luciferase reporter assay MCF7-GFP-Rbp/Jk(luc). The settings on record: 50 µM, 2 and 5 days. Here is the method:
(§1) The Cignal Lenti reporter assay (luc) was used to monitor the activity of several signalling pathways in MCF7-GFP cells as explained previously. Luciferase Assay System (E1501, Promega) was performed according to manufacturer’s instructions. 1 × 10^4 MCF7 were seeded in black-walled 96 well plates. When cells were attached, drug treatments were added for 18, 48 hours and 5 days. After treatment, Luciferase Assay was performed according to manufacturer’s instructions and light signal was acquired in the Xenogen VivoVision IVIS Lumina. Results were normalized by SRB staining of cells grown in 96-well plates in parallel.
(§2) SRB (S9012, Sigma) measures total biomass by staining cellular proteins. After treatment, cells were fixed in 10% tricloroacetic acid (T9159, Sigma) for 1 hour at 4° C, stained with SRB (S9012, Sigma) for 15 minutes, and washed 3 times with 1% acetic acid (27225, Sigma). The incorporated die was solubilized with 10 mM Tris Base, pH 8.8 (T1503, Sigma). Absorbance was spectrophotometrically measured at 562 nm in a FluoStar Omega plate reader (BMG Labtech). Background measurements were subtracted from all values.

Test [3] concerns E-cadherin. Nature of the test: Western blotting. The settings on record: MCF7 cells. Here is the method:
At the end of the treatment, cells in suspension were spun down and lysed and attached cells were directly lysed in RIPA lysis buffer (R0278, Sigma) containing proteinase inhibitors (05 892 970 001, Roche) and kept at 4° C for 20 minutes with rotation. Lysates were cleared by centrifugation for 10 minutes at 10,000 xg and supernatants were collected. […] Bound antibodies were detected using a horseradish peroxidase-conjugated secondary antibody (ab6789 and ab6721, Abcam) and signal was obtained using Supersignal West Pico chemiluminiscent substrate (34087, ThermoScientific). Pictures were taken in a ChemiDoc XRS with Image Lab Software (BioRad).
(A western blot detects proteins with antibodies after separation by electrophoresis.)

The test system of test [4] is Wnt signalling. Briefly: Luciferase reporter assay MCF7-GFP-TCF/LEF(luc). The settings on record: 50 µM, 2 and 5 days. Here is the method:
as §1, §2
On the technique in general: Reporter assays use an easily measured gene product as a stand-in for the process of interest.

Test [5] deals with MCF7 cells. Briefly: Mitochondrial staining (MitoTracker Deep Red, microscopy). The following applies: 10 µM, 2 days or 5 days. The protocol:
One hundred thousand MCF7 cells were seeded onto coverslips in 12-well plates. When cells were attached, mDIVI1 and vehicle treatments were performed in triplicate. After 2 days and 5 days, mitochondria were labeled by incubating cells for 15 min at 37° C with 25 nM of MitoTracker DeepRed (M22426, Invitrogen) diluted in PBS ([…], Sigma). Then, cells were washed with PBS, fixed in 2% paraformaldehyde (28908, Thermo Scientific) in PBS for 30 minutes at room temperature and mounted with ProLong® Gold Antifade Mountant reagent with DAPI (P36935, Invitrogen, Inc.). Immunofluorescence pictures were taken in a Leica gated Stimulated Emission Depletion Microscopy (gSTED) with additional confocal and multi-photon illumination (room rg106).

Test [6] concerns MCF7 cells. Nature of the test: DAPI immunofluorescence staining (binucleated cells). The settings on record: 50 µM; data not shown.
For test [7], the system named is TGFβ signalling. Briefly: Luciferase reporter assay MCF7-GFP-SMAD(luc). The following applies: 50 µM, 2 and 5 days. The protocol:
as §1, §2

Test [8] relates to MCF7 cells. Briefly: Scratch assay (wound closure). The following applies: 48 hours. Here is the method: A hundred thousand MCF7 cells per well were seeded in 12-well plates. When cells were attached, a horizontal scratch was performed using the tip of a pipette. Immediately after, the media was removed and either fresh vehicle-containing media or mDIVI1-containing media were added to the cells for 48 hours. Four replicates were used for each condition. Cells were incubated in a 5% CO2 atmosphere at 37° C in an Incucyte ZOOM System (Essen Bioscience). The wound closure was monitored by taking pictures of each well every 4 hours. At the end of the treatment, pictures of the wells at 0 and 48 hours were analysed using ImageJ software to calculate wound closure according to the following formula: Percentage wound closure=[(wound area0h−wound area48h)/wound area0h]×100

Test [9] deals with MCF7 cells. Briefly: DAPI viability of cells in suspension (anoikis resistance, FACS). The protocol: Following mDIVI1 treatment, MCF7 cells grown either in suspension or as monolayers were analysed for their expression of CD24 and CD44. The surviving fraction after 2 days and 5 days of growth was analyzed by FACS. MCF7 cells were either trypsinised or spun down and trypsinised and incubated with CD24 (IOTest CD24-PE, Beckman Coulter) and CD44 (APC mouse anti-human CD44, 559942, BD Pharmingen) for 15 minutes on ice. Cells were then rinsed twice in PBS, spun down, and resuspended with DAPI dye (D1306, Molecular probes) at 3 μM in PBS for 10 minutes. Samples were then analyzed by FACS (Fortessa, BD Bioscence). Only the live cell population, identified using the DAPI staining, was analyzed for CD24/CD44 expression. Data were analyzed using FlowJo software.

Test [10] relates to MCF7 cells. Briefly: Mitochondrial mass quantification (MitoTracker Deep Red, flow cytometry). The settings on record: 50 µM, 5 days, vs vehicle. The protocol: To measure mitochondrial mass, cells were stained with MitoTracker Deep Red (M22426, Invitrogen). Briefly, 2 × 10^5 MCF7 cells per well were seeded in 6-well plates. When cells were attached, mDIVI1 and vehicle treatments were added for 2 days or 5 days in triplicate. Cells were then incubated for 15 min at 37° C with the 10 nM Mitotracker Deep Red probe diluted in PBS ([…], Sigma). All subsequent steps were performed in the dark. Cells were washed in PBS, harvested, and re-suspended in PBS. Mitotracker signal was quantified as mean fluorescent intensity of the viable cell population in a Fortessa flow cytometer (BD Bioscience). Results were analyzed using FlowJo software.

SMILES strings stand for the structures.

For `COc1cc(-n2c(=S)[nH]c3ccccc3c2=O)c(Cl)cc1Cl` [mDIVI1, 3-(2,4-Dichloro-5-methoxyphenyl) 2,3-dihydro 2-thioxo-4(1H) quinazolinone], in test [1], the “general oxidative stress levels (total ROS)” value is “did not change”. In test [2], the “Notch/Rbp pathway luciferase activity” value is listed as “strikingly caused the inhibition”. For the same compound, the “E-cadherin expression (immunoblot)” value in test [3] is “reduction in the expression”. Besides, the “Wnt/TCF pathway luciferase activity” value in [4] is “strikingly caused the inhibition”. In addition, the mitochondrial morphology entry in test [5] is given as “more interconnected mitochondria”. For the same compound, in test [6], the “binucleated cells (failure of cytokinesis)” value is given as “increase in binucleated cells”. In test [7], the “TGFβ/SMAD pathway luciferase activity” value is listed as “strikingly caused the inhibition”. The “reduction of percentage of wound closure vs vehicle” value is listed as 14% in test [8] (10 µM) and 44% in test [8] (50 µM). Besides, the “cell viability under anchorage-independent conditions (DAPI) vs vehicle” value in [9] is on record as “no significant differences”. The “Mitotracker Deep Red mean fluorescence intensity (mitochondrial mass)” value in test [10] was “significantly higher”.
